{"source": "patent US9139502B2", "about": "“Use of an urushiol compound in preparation of pharmaceutical compositions for inhibiting Smad3 phosphorylation” (Southern Hospital, Southern Medical University, priority 2013, dated 2015)", "key": {"[1]": {"system": "PI3K", "assay": "Western blot of TGF-β1-induced PI3K phosphorylation in vitro", "type": "cell-based, rat", "conditions": "NRK52E and NRK49F cells, GQ-5 2.5 nM pre-treated 1 h, TGF-β1 10 ng/ml 1 h", "protocol": "(§1) NRK52E and NRK49F cells were cultured in DMEM-Ham's medium (Gibco, Life Techologies, NY, USA) supplemented with 10% fetal bovine serum (Gibco, Life Techologies, NY, USA). The cells reached at approximately 50% confluence were used for in vitro experiments. Cells were serum-starved for 12 h, and randomized into 4 groups: (1) Controls; (2) GQ-5 only; (3) TGF-β1 only; (4) TGF-β1+GQ-5\n(§2) (2) GQ-5 only: pre-treated with GQ-5 (2.5 μM) for 1 h, followed with DMEM for 1 h\n(§3) (3) TGF-β1 only: pre-treated with DMSO (0.1%) for 1 h, followed with TGF-β1 (10 ng/ml) for 1 h\n(§4) (4) TGF-β1+GQ-5: pre-treated with GQ-5 (2.5 nM) for 1 h, followed with TGF-β1 (10 ng/ml) for 1 h\n(§5) GQ-5 was dissolved in DMSO. Cells were treated as described. cell lysates were immunoblotted with antibodies against Smad4, Smad7, phospho-p38, p38, phospho-PI3K, PI3K, phosphor-ERK, and ERK."}, "[2]": {"system": "collagen I", "assay": "Collagen I expression in UUO kidney tissue (real-time PCR, immunohistochemistry, Western blot)", "type": "in vivo, rat", "conditions": "UUO rats, GQ-5 40 mg/kg daily i.p., sacrificed day 14", "protocol": "(§6) Male Sprague-Dawley rats were randomized into 4 groups (n=6 in each group): (1) sham operated rats; (2) UUO rats; (3) UUO+GQ-5 d1 rats; (4) UUO+GQ-5 d7 rats.\n(§7) GQ-5 was dissolved in 5% propylene glycol.\n(§8) (3) UUO+GQ-5 d1 rats: daily intraperitoneal injection of GQ-5 (40 mg/kg body weight) right after UUO;\n(§9) (4) UUO+GQ-5 d7 rats: daily intraperitoneal injection of GQ-5 (40 mg/kg body weight) 7 days after UUO.\n(§10) UUO was performed using an established protocol as described. GQ-5 was dissolved in 5% propylene glycol. Rats were administrated with GQ-5 as described before. All the rats were sacrificed 14 days after UUO. HE staining, Masson trichrome staining were performed to examine the renal tissue injury, and Real-time PCR analyses, immunohistochemical staining, and Western blot analyses were performed to examine α-SMA, collagen I and fibronectin expression in kidney tissue"}, "[3]": {"target": "T1, interaction of Smad3 with TβRI (Rattus norvegicus, UniProt P84025)", "T1 sequence (P84025 whole entry)": "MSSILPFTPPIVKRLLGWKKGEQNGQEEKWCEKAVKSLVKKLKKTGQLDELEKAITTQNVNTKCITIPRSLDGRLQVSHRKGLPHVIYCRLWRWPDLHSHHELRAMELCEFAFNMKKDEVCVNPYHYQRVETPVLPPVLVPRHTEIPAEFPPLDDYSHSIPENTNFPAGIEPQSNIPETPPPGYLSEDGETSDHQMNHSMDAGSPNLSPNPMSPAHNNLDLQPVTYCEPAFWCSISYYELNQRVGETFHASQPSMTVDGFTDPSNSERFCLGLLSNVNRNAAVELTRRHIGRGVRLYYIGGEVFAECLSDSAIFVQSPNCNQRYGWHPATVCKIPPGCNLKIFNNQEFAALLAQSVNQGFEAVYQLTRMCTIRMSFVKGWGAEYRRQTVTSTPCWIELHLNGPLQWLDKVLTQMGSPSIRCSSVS", "assay": "Immunoprecipitation of Smad3 with TβRI in vitro", "type": "cell-based", "conditions": "NRK52E cells, GQ-5 2.5 nM pre-treated 1 h, TGF-β1 10 ng/ml 1 h", "protocol": "as §1, with “NRK52E” for “NRK52E and NRK49F”, “medium” for “medium (Gibco, Life Techologies, NY, USA)”, “serum.” for “serum (Gibco, Life Techologies, NY, USA).”\n(2) GQ-5 only: pre-treated with GQ-5 (2.5 nM) for 1 h, followed with DMEM for 1 h\n(3) TGF-β1 only: pre-treated with DMSO for 1 h, followed with TGF-β1 (10 ng/ml) for 1 h\nas §4\nGQ-5 was dissolved in DMSO. Cells were treated as described. Cell lysates were collected for immunoprecipitation to examine the interaction among TGFβ type I receptor (TβRI), TβRII, Smad3 and Smad2."}, "[4]": {"system": "Smad2 phosphorylation", "assay": "Smad2 phosphorylation in kidney tissue of UUO rats (immunohistochemistry, Western blot)", "type": "in vivo, rat", "conditions": "GQ-5 40 mg/kg daily i.p. right after or 7 days after UUO, sacrificed day 14", "protocol": "Male Sprague-Dawley rats with body weight 200 to 250 g were randomized into 4 groups (n=6 in each group): (1) sham operated rats; (2) UUO rats; (3) UUO+GQ-5 d1 rats; (4) UUO+GQ-5 d7 rats.\nas §7, §8, §9\nUUO was performed using an established protocol as described. GQ-5 was dissolved in 5% propylene glycol. Rats were administrated with GQ-5 as described before. All the rats were sacrificed 14 days after UUO. Immunohistochemical staining and Western blot analyses were performed to examine the Smad3 and Smad2 phosphorylation in kidney tissue."}, "[5]": {"system": "α-SMA", "assay": "α-SMA expression in UUO kidney tissue (real-time PCR, immunohistochemistry, Western blot)", "type": "in vivo, rat", "conditions": "UUO rats, GQ-5 40 mg/kg daily i.p., sacrificed day 14", "protocol": "as §6, §7, §8, §9, §10"}, "[6]": {"system": "UUO rats", "assay": "Renal interstitial fibrosis after UUO (HE and Masson trichrome staining)", "type": "in vivo, rat", "conditions": "GQ-5 40 mg/kg daily i.p. initiating right after or 7 days after operation, sacrificed day 14", "protocol": "as §6, §7, §8, §9, §10"}, "[7]": {"system": "fibronectin", "assay": "Fibronectin expression in UUO kidney tissue (real-time PCR, immunohistochemistry, Western blot)", "type": "in vivo, rat", "conditions": "UUO rats, GQ-5 40 mg/kg daily i.p., sacrificed day 14", "protocol": "as §6, §7, §8, §9, §10"}, "[8]": {"system": "ERK", "assay": "Western blot of TGF-β1-induced ERK phosphorylation in vitro", "type": "cell-based, rat", "conditions": "NRK52E and NRK49F cells, GQ-5 2.5 nM pre-treated 1 h, TGF-β1 10 ng/ml 1 h", "protocol": "as §1, §2, §3, §4, §5"}, "[9]": {"target": "T1, interaction of Smad3 with TβRI", "assay": "Immunoprecipitation of Smad3 with TβRI in UUO kidneys", "type": "in vivo", "design": "from tissue; host or cells: kidney of UUO Sprague-Dawley rats", "conditions": "GQ-5 40 mg/kg daily i.p. right after UUO, sacrificed day 14", "protocol": "Male Sprague-Dawley rats with body weight 200 to 250 g were randomized into 3 groups (n=6 in each group): (1) sham operated rats; (2) UUO rats; (3) UUO+GQ-5 rats.\nas §7\n(3) UUO+GQ-5 rats: daily intraperitoneal injection of GQ-5 (40 mg/kg body weight) right after UUO;\nUUO was performed using an established protocol as described. GQ-5 was dissolved in 5% propylene glycol. Rats were administrated with GQ-5 as described before. All the rats were sacrificed 14 days after UUO. Immunoprecipitation analyses were performed to examine the interaction among TβRI, TβRII, Smad3 and Smad2."}, "[10]": {"system": "fibronectin", "assay": "Western blot of TGF-β1-induced fibronectin protein in vitro", "type": "cell-based, rat", "conditions": "NRK 52E and NRK 49F cells, GQ-5 0.1-2.5 μM pre-treated 1 h, TGF-β1 10 ng/ml 48 h", "protocol": "NRK52E and NRK49F cells were cultured in DMEM-Ham's medium supplemented with 10% fetal bovine serum. The cells reached at approximately 50% confluence were used for in vitro experiments. Cells were serum-starved for 12 h, and randomized into 6 groups: (1) Controls; (2) GQ-5 only; (3) TGF-β1 only; (4) TGF-β1+GQ-5 0.1 μM; (5) TGF-β1+GQ-5 0.5 μM; (6) TGF-β1+GQ-5 2.5 μM\n(2) GQ-5 only: pre-treated with GQ-5 (2.5 μM) for 1 h, followed with DMEM for 48 h\n(3) TGF-β1 only: pre-treated with DMSO for 1 h, followed with TGF-β1 (10 ng/ml) for 48 h\n(4) TGF-β1+GQ-5 0.1 μM: pre-treated with GQ-5 (0.1 μM) for 1 h, followed with TGF-β1 (10 ng/ml) for 48 h\n(5) TGF-β1+GQ-5 0.5 μM: pre-treated with GQ-5 (0.5 μM) for 1 h, followed with TGF-β1 (10 ng/ml) for 48 h\n(6) TGF-β1+GQ-5 2.5 μM: pre-treated with GQ-5 (2.5 μM) for 1 h, followed with TGF-β1 (10 ng/ml) for 48 h\nGQ-5 was dissolved in DMSO. Cells were treated as described. Cells lysates were immunebloted with antibodies against α-SMA, collagen I and fibronectin."}}, "data": [{"compound": "CCCCCC/C=C\\CCCCCCCc1cccc(O)c1O", "note": "[GQ-5, 3-[(Z)-pentadec-8-enyl]catechol]", "values": [{"measurement": "TGF-β1-induced phosphorylation of PI3K", "setting": "[1]", "result": "did not affect"}, {"measurement": "up-regulation of collagen I at both mRNA and protein level", "setting": "[2]", "result": "significantly inhibited"}, {"measurement": "interaction of Smad3 with TβRI", "setting": "[3]", "result": "significantly blocked"}, {"measurement": "Smad2 phosphorylation in renal tissue", "setting": "[4]", "result": "not Smad2"}, {"measurement": "up-regulation of α-SMA at both mRNA and protein level", "setting": "[5]", "result": "significantly inhibited"}, {"measurement": "inflammatory cell infiltration", "setting": "[6]", "result": "significantly reduced"}, {"measurement": "interstitial fibrosis score", "setting": "[6]", "result": "significantly reduced"}, {"measurement": "up-regulation of fibronectin at both mRNA and protein level", "setting": "[7]", "result": "significantly inhibited"}, {"measurement": "TGF-β1-induced phosphorylation of ERK", "setting": "[8]", "result": "did not affect"}, {"measurement": "interaction of Smad3 with TβRI", "setting": "[9]", "result": "significantly blocked"}, {"measurement": "TGF-β1-induced protein expression of fibronectin", "setting": "[10]", "result": "significantly inhibited"}]}]}
